Some test systems named below: TK-10 renal; RPMI-8226 leukemia; UACC-62 melanoma; HS 578T breast; PC-3 prostate; SW-620 colon; MALME-3M melanoma; SNB-75 CNS; M14 melanoma; A498 renal.
Holding throughout (test): NCI anticancer screen, dose series, 48 h

Experimental findings from PubChem BioAssay (NCI) are described below.

Where “and” joins values, the source holds several entries; their conditions need not be identical. Equal values may be shown once.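 All cell lines were grown in 96-well plates and treated with compound for 48 hours. Abbreviation: GI50, concentration required for 50% inhibition of growth. TGI marks complete inhibition of growth.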 Some results are limits rather than exact numbers.

On to `Oc1c(-c2nnc(-c3ccccc3Cl)o2)sc2nnc(-c3ccccc3)c(-c3ccccc3)c12`, for which the GI50 in the test on TK-10 renal is 5.39 µM; in the test on RPMI-8226 leukemia, 2920 nM; with UACC-62 melanoma it was 2640 nM; with HS 578T breast, 3.78 µM; in the test with PC-3 prostate it was 3.15 µM; with SW-620 colon, 4070 nM. For the same molecule, the GI50 is 4.22 µM in the test with MALME-3M melanoma, 6.94 µM with SNB-75 CNS, 5 µM with M14 melanoma and 7350 nM in the test on A498 renal. The TGI in the test with TK-10 renal was 83.7 µM; with RPMI-8226 leukemia, greater than 100 µM; with UACC-62 melanoma, 9.49 µM; with HS 578T breast, greater than 100 µM; in the test with PC-3 prostate, greater than 100 µM; in the test with SW-620 colon, 25.3 µM. Also, the TGI in the test with MALME-3M melanoma is 33.1 µM; in the test with SNB-75 CNS it was greater than 100 µM; in the test on M14 melanoma, 39.3 µM; in the test on A498 renal, 41.7 µM.

`O.O.[NH-]C1(C(=O)O)CCCC1.[NH-]C1(C(=O)O)CCCC1.[Ni+2]`: the GI50 in the test on TK-10 renal is greater than 100 µM; in the test on HS 578T breast it was greater than 100 µM; in the test with PC-3 prostate, greater than 100 µM; in the test with M14 melanoma, 96.7 µM. Besides, the TGI in the test with TK-10 renal, in the test on RPMI-8226 leukemia, in the test with UACC-62 melanoma, in the test on HS 578T breast, in the test on PC-3 prostate and in the test on SW-620 colon was greater than 100 µM each time. Moreover, the TGI in the test on MALME-3M melanoma, in the test on SNB-75 CNS, with M14 melanoma and in the test on A498 renal was greater than 100 µM in each case.

Regarding `CCCCON(OC(=O)c1ccc2ccccc2c1)C(=O)c1ccccc1`, the GI50 in the test on TK-10 renal is greater than 100 µM; in the test with RPMI-8226 leukemia, 74200 nM; with UACC-62 melanoma it was greater than 100000 nM; with HS 578T breast it was greater than 100 µM; with PC-3 prostate it was greater than 100 µM; in the test on SW-620 colon, 36300 nM. For the same molecule, the GI50 in the test on MALME-3M melanoma was greater than 100 µM; in the test with SNB-75 CNS, 86.2 µM; in the test on M14 melanoma, greater than 100 µM; in the test on A498 renal, greater than 100000 nM. Further, the TGI with TK-10 renal, in the test with RPMI-8226 leukemia, in the test with UACC-62 melanoma, in the test on HS 578T breast, in the test on PC-3 prostate and in the test with SW-620 colon was greater than 100 µM each time. The TGI in the test on MALME-3M melanoma, in the test on SNB-75 CNS, with M14 melanoma and in the test with A498 renal was greater than 100 µM each time.

As to `O=c1[nH]c(=O)c2cn[nH]c2[nH]1`, the GI50 with TK-10 renal is greater than 100 µM; with RPMI-8226 leukemia, greater than 100000 nM; in the test with UACC-62 melanoma, greater than 100000 nM; in the test with HS 578T breast it was greater than 100 µM; in the test on PC-3 prostate it was greater than 100 µM; in the test with SW-620 colon, greater than 100000 nM. Further, the GI50 is greater than 100 µM in the test with MALME-3M melanoma, greater than 100 µM in the test on SNB-75 CNS, greater than 100 µM in the test with M14 melanoma and greater than 100000 nM in the test on A498 renal. Moreover, the TGI with TK-10 renal, in the test on RPMI-8226 leukemia, with UACC-62 melanoma, in the test on HS 578T breast, in the test with PC-3 prostate and in the test on SW-620 colon was greater than 100 µM throughout. For the same molecule, the TGI in the test on MALME-3M melanoma, in the test on SNB-75 CNS, in the test with M14 melanoma and with A498 renal was greater than 100 µM each time.

With `COC(=O)C1CC23CCCN4CCC5(c6ccccc6N(C=O)C15CC2)C43` (centres undefined), the TGI in the test with TK-10 renal, in the test on RPMI-8226 leukemia, in the test with UACC-62 melanoma, in the test with HS 578T breast, in the test on PC-3 prostate and with SW-620 colon was greater than 100 µM throughout. Moreover, the TGI in the test on MALME-3M melanoma, in the test on SNB-75 CNS, in the test on M14 melanoma and with A498 renal was greater than 100 µM each time.

Turning to `CN(CCO)CC[C@H](CSc1ccccc1)Nc1ccc(S(=O)(=O)NC(=O)c2ccc(N3CCC([C@@H](O)c4ccccc4-c4ccc(Cl)cc4)CC3)cc2)cc1S(=O)(=O)C(F)(F)F`, the GI50 in the test with TK-10 renal was 5.2 µM; with RPMI-8226 leukemia, 160 nM; with UACC-62 melanoma, 1800 nM; with HS 578T breast it was 2.23 µM; with PC-3 prostate, 2.51 µM; in the test on SW-620 colon it was 2430 nM. Also, the GI50 was 2.48 µM in the test with MALME-3M melanoma, 3.63 µM in the test on SNB-75 CNS, 3.51 µM in the test with M14 melanoma and 28.8 nM in the test with A498 renal. For the same molecule, the TGI with TK-10 renal amounted to 19.2 µM; in the test with RPMI-8226 leukemia, 2.94 µM; in the test with UACC-62 melanoma, 4.13 µM; in the test with HS 578T breast it was 7.27 µM; in the test on PC-3 prostate, 9.05 µM; in the test with SW-620 colon, 8.91 µM. Moreover, the TGI in the test with MALME-3M melanoma was 8.55 µM; in the test with SNB-75 CNS, 34.2 µM; with M14 melanoma, 20.2 µM; with A498 renal it was 0.252 µM.

Consider `CC[C@@H]1c2c(C#N)ncn2-c2cnc(Nc3ccc(C(=O)NC4CCN(C5CCN(CC6CC6)CC5)CC4)cc3OC)nc2N1C1CCCC1`, for which the GI50 was 1.03 µM in the test on TK-10 renal; 83 nM in the test with RPMI-8226 leukemia; 372 nM in the test with UACC-62 melanoma; 0.069 µM in the test with HS 578T breast; 0.0438 µM in the test with PC-3 prostate; 30.8 nM and 32.7 nM in the test with SW-620 colon. Moreover, the GI50 with MALME-3M melanoma was 0.0853 µM; with SNB-75 CNS, 0.0452 µM; with M14 melanoma it was 0.0316 µM; in the test with A498 renal, 174 nM and 308 nM. Also, the TGI with TK-10 renal is 2.23 µM; with RPMI-8226 leukemia, 2.97 µM; in the test on UACC-62 melanoma, 1.79 µM; with HS 578T breast, 1.78 µM; in the test with PC-3 prostate it was 2.08 µM; in the test on SW-620 colon, 1.76 µM and 1.78 µM. Besides, the TGI in the test on MALME-3M melanoma is 1.85 µM; in the test on SNB-75 CNS, 1.26 µM; in the test with M14 melanoma, 1.35 µM; in the test with A498 renal, 1.17 µM and 1.57 µM.

As for `COc1cc(C(O)CCBr)c(OC)cc1C` (centres undefined), the TGI in the test on TK-10 renal was greater than 100 µM; with RPMI-8226 leukemia, greater than 100 µM; in the test with UACC-62 melanoma, 50.8 µM; in the test with HS 578T breast, greater than 89.4 µM; in the test on PC-3 prostate, greater than 73 µM; with SW-620 colon, greater than 100 µM. For the same molecule, the TGI is greater than 100 µM with MALME-3M melanoma, greater than 100 µM in the test with SNB-75 CNS, 33.9 µM in the test on M14 melanoma and greater than 100 µM in the test with A498 renal.
